Measured values: patent publication US10934310B2, “Inhibitors of Bruton's tyrosine kinase and method of their use” (JANSSEN PHARMACEUTICA NV, priority 2015, dated 2021)

Molecular target: unphosphorylated-BTK kinase domain (UP-BTK), GST-tagged human BTK (389-659aa) (Homo sapiens (Human), UniProt Q06187)
Experiment: BTK Kinase Lanthascreen Binding Assay
Settings: for BTK_I_binding pIC50: pIC50 = negative log of the IC50 in molar; for IC50: read-out: BTK_I_binding pIC50 (converted)
Experimental: BTK Kinase Lanthascreen Binding Assay:
A BTK kinase lanthascreen binding assay monitors compound binding to unphosphorylated-BTK kinase domain (UP-BTK), by competing with a fluorescent labeled tracer. […] Data were analyzed using Xlfit™ version 5.3 from ID Business Solutions (Guildford), Microsoft Excel add-in. pIC50 refers to the negative log of the IC50 in molar.

[1] = Lanthascreen binding, 60 minutes incubation
[2] = compound, 50 nM Tracer 236, 2 nM anti-GST antibody, 60 minutes

Chain of unphosphorylated-BTK kinase domain (UP-BTK), GST-tagged human BTK (389-659aa) (Q06187 389-659): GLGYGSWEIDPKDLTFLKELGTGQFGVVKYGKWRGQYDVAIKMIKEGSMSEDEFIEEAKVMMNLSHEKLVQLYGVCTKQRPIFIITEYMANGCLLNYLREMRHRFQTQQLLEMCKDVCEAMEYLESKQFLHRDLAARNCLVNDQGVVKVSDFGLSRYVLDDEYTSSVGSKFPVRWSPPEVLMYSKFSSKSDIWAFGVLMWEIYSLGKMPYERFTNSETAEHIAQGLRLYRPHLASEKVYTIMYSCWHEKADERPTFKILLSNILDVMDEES

Compound | BTK_I_binding pIC50 [2] | other results
C=CC(=O)N[C@@H]1CCCC[C@H]1NC(=O)c1sc2nccc3c2c1NC(=O)N3c1cnc(CC(C)C)cc1C (single isomer, unassigned) [Example 404, N-((1R,2R)-2-Acrylamidocyclohexyl)-5-(*S)-(6-isobutyl-4-methylpyridin-3-yl)-4-oxo-4,5-dihydro-3H-1-thia-3,5,8-triazaacenaphthylene-2-carboxamide] |  | BTK_I_binding pIC50 [1]: 6.21
C=CC(=O)NC1CCC[C@@H](NC(=O)c2sc3nccc4c3c2NC(=O)N4c2ccc(Oc3ccccc3)cc2C)C1 (stereo in doubt) [Example 2, N-((1R,3S)-3-Acrylamidocyclohexyl)-5-(2-methyl-4-phenoxyphenyl)-4-oxo-4,5-dihydro-3H-1-thia-3,5,8-triazaacenaphthylene-2-carboxamide] | 7.36 | 
C=CC(=O)N[C@H]1CCC[C@H]1NC(=O)c1sc2nccc3c2c1NC(=O)N3c1ccc(OC2CCOCC2)cc1C [Example 206, N-((1R,2S)-2-Acrylamidocyclopentyl)-5-(2-methyl-4-((tetrahydro-2H-pyran-4-yl)oxy)phenyl)-4-oxo-4,5-dihydro-3H-1-thia-3,5,8-triazaacenaphthylene-2-carboxamide] | 7.33 | 
Cc1cc(OC(C)C)ccc1N1C(=O)Nc2c(C(=O)N[C@H]3CC[C@@H](NC(=O)CN(C)C)C3)sc3nccc1c23 [Example 158, N-((1S,3R)-3-(2-(Dimethylamino)acetamido)cyclopentyl)-5-(4-isopropoxy-2-methylphenyl)-4-oxo-4,5-dihydro-3H-1-thia-3,5,8-triazaacenaphthylene-2-carboxamide] | 6.11 | 
C=CC(=O)N[C@H]1CCC[C@H]1NC(=O)c1sc2nccc3c2c1NC(=O)N3c1ccc(Oc2ccc(C)nc2)cn1 [Example 481, N-((1R,2S)-2-Acrylamidocyclopentyl)-5-(5-((6-methylpyridin-3-yl)oxy)pyridin-2-yl)-4-oxo-4,5-dihydro-3H-1-thia-3,5,8-triazaacenaphthylene-2-carboxamide] |  | BTK_I_binding pIC50 [1]: 7.33
Cc1cc(Oc2ccccc2)ccc1N1C(=O)Nc2c(C(=O)N[C@@H]3CCCC[C@H]3NC(=O)CN(C)C)sc3nccc1c23 (single isomer, unassigned) [Example 447, N-((1R,2R)-2-(2-(Dimethylamino)acetamido)cyclohexyl)-5-(*S)-(2-methyl-4-phenoxyphenyl)-4-oxo-4,5-dihydro-3H-1-thia-3,5,8-triazaacenaphthylene-2-carboxamide] |  | BTK_I_binding pIC50 [1]: 6.67
C=CC(=O)N[C@H]1CCC[C@H]1NC(=O)c1sc2nccc3c2c1NC(=O)N3c1cnc(Oc2ccccc2)cc1C (single isomer, unassigned) [Example 171, N-((1R,2S)-2-Acrylamidocyclopentyl)-5-(*S)-(4-methyl-6-phenoxypyridin-3-yl)-4-oxo-4,5-dihydro-3H-1-thia-3,5,8-triazaacenaphthylene-2-carboxamide] | 8.19 | 
C=CC(=O)NC1CCC[C@H]1NC(=O)c1sc2nccc3c2c1NC(=O)N3c1ccnc(-c2ccccc2)c1 (stereo in doubt) [Example 197, N-((1R,2R)-2-Acrylamidocyclopentyl)-4-oxo-5-(2-phenylpyridin-4-yl)-4,5-dihydro-3H-1-thia-3,5,8-triazaacenaphthylene-2-carboxamide] | 7.48 | 
C=CC(=O)N[C@H]1CCC[C@H]1NC(=O)c1sc2nccc3c2c1NC(=O)N3c1cnc(Oc2ccccc2)nc1 [Example 310, N-((1R,2S)-2-Acrylamidocyclopentyl)-4-oxo-5-(2-phenoxypyrimidin-5-yl)-4,5-dihydro-3H-1-thia-3,5,8-triazaacenaphthylene-2-carboxamide] |  | BTK_I_binding pIC50 [1]: 8.04
CC(=O)N[C@@H]1CC[C@@H](NC(=O)c2sc3nccc4c3c2NC(=O)N4c2cnc(Oc3ccccc3)cc2C)C1 (single isomer, unassigned) [Example 392, N-((1R,3R)-3-Acetamidocyclopentyl)-5-(*S)-(4-methyl-6-phenoxypyridin-3-yl)-4-oxo-4,5-dihydro-3H-1-thia-3,5,8-triazaacenaphthylene-2-carboxamide] |  | BTK_I_binding pIC50 [1]: 7.34
Cc1cc(Oc2ccccc2)ccc1N1C(=O)Nc2c(C(=O)N[C@H]3CCC[C@H]3NC(=O)CN(C)C)sc3nccc1c23 (single isomer, unassigned) [Example 155, N-((1S,2R)-2-(2-(Dimethylamino)acetamido)cyclopentyl)-5-(*S)-(2-methyl-4-phenoxyphenyl)-4-oxo-4,5-dihydro-3H-1-thia-3,5,8-triazaacenaphthylene-2-carboxamide] | 6.35 | 
Cc1cc(Oc2ccccc2)ccc1N1C(=O)Nc2c(C(=O)N[C@H]3CCC[C@H]3O)sc3nccc1c23 [Example 39, N-((1S,2R)-2-Hydroxycyclopentyl)-5-(2-methyl-4-phenoxyphenyl)-4-oxo-4,5-dihydro-3H-1-thia-3,5,8-triazaacenaphthylene-2-carboxamide] | 6.51 | 
N[C@H]1CCC[C@H]1NC(=O)c1sc2nccc3c2c1NC(=O)N3c1cnnc(-c2ccccc2)c1 [Example 278, N-((1R,2S)-2-Aminocyclopentyl)-4-oxo-5-(6-phenylpyridazin-4-yl)-4,5-dihydro-3H-1-thia-3,5,8-triazaacenaphthylene-2-carboxamide] |  | IC50: > 1 µM
CNCC(=O)N[C@@H]1CCC[C@@H]1NC(=O)c1sc2nccc3c2c1NC(=O)N3c1ccnc(-c2ccccc2)c1 [Example 286, N-((1S,2R)-2-(2-(Methylamino)acetamido)cyclopentyl)-4-oxo-5-(2-phenylpyridin-4-yl)-4,5-dihydro-3H-1-thia-3,5,8-triazaacenaphthylene-2-carboxamide] |  | IC50: > 1 µM
C=CC(=O)N[C@H]1CCC[C@H]1NC(=O)c1sc2nccc3c2c1NC(=O)N3c1ccnc(-c2ccccc2)c1 [Example 169, N-((1R,2S)-2-Acrylamidocyclopentyl)-4-oxo-5-(2-phenylpyridin-4-yl)-4,5-dihydro-3H-1-thia-3,5,8-triazaacenaphthylene-2-carboxamide] | 8.26 | 
C=CC(=O)N[C@@H]1CC[C@@H](NC(=O)c2sc3nccc4c3c2NC(=O)N4c2ccc(Oc3ccccc3)cc2C)C1 (single isomer, unassigned) [Example 175, N-((1R,3R)-3-Acrylamidocyclopentyl)-5-(*S)-(2-methyl-4-phenoxyphenyl)-4-oxo-4,5-dihydro-3H-1-thia-3,5,8-triazaacenaphthylene-2-carboxamide] | 8.05 | 
CNCC(=O)N[C@@H]1CC[C@H](NC(=O)c2sc3nccc4c3c2NC(=O)N4c2ccc(Oc3ccccc3)cc2C)C1 [Example 72, 5-(2-Methyl-4-phenoxyphenyl)-N-((1S,3R)-3-(2-(methylamino)acetamido)cyclopentyl)-4-oxo-4,5-dihydro-3H-1-thia-3,5,8-triazaacenaphthylene-2-carboxamide] | 7.02 | 
Cc1cc(Oc2ccccc2)ccc1N1C(=O)Nc2c(C(=O)N[C@@H]3CCC[C@H]3O)sc3nccc1c23 (single isomer, unassigned) [Example 61, N-((1R,2R)-2-Hydroxycyclopentyl)-5-(*R)-(2-methyl-4-phenoxyphenyl)-4-oxo-4,5-dihydro-3H-1-thia-3,5,8-triazaacenaphthylene-2-carboxamide] | 5.36 | 
CC(=O)N[C@@H]1CC[C@H](NC(=O)c2sc3nccc4c3c2NC(=O)N4c2ccc(Oc3ccccc3)cc2C)C1 (relative stereo) [Example 88, N-((1S,3R)-3-Acetamidocyclopentyl)-5-(*S)-(2-methyl-4-phenoxyphenyl)-4-oxo-4,5-dihydro-3H-1-thia-3,5,8-triazaacenaphthylene-2-carboxamide] | 7.89 | 
CC(=O)N[C@H]1CCC[C@@H]1NC(=O)c1sc2nccc3c2c1NC(=O)N3c1ccc(Oc2ccccc2)cc1C (single isomer, unassigned) [Example 134, N-((1S,2S)-2-Acetamidocyclopentyl)-5-(*S)-(2-methyl-4-phenoxyphenyl)-4-oxo-4,5-dihydro-3H-1-thia-3,5,8-triazaacenaphthylene-2-carboxamide] | 6.76 | 
CNCC(=O)N[C@@H]1CC[C@H](NC(=O)c2sc3nccc4c3c2NC(=O)N4c2ccc(Oc3ccccc3)cc2C)C1 (single isomer, unassigned) [Example 103, 5-(*S)-(2-Methyl-4-phenoxyphenyl)-N-((1S,3R)-3-(2-(methylamino)acetamido)cyclopentyl)-4-oxo-4,5-dihydro-3H-1-thia-3,5,8-triazaacenaphthylene-2-carboxamide] | 7.40 | 
N[C@H]1CC[C@H](NC(=O)c2sc3nccc4c3c2NC(=O)N4c2ccc(Oc3ccccc3)nc2)C1 (racemic) [Example 290, racemic trans N-((1RS,3RS)-3-Aminocyclopentyl)-4-oxo-5-(6-phenoxypyridin-3-yl)-4,5-dihydro-3H-1-thia-3,5,8-triazaacenaphthylene-2-carboxamide] |  | IC50: 2.24 µM
CNC1CC[C@H](NC(=O)c2sc3nccc4c3c2NC(=O)N4c2ccc(Oc3ccccc3)cc2C)C1 (mixture of isomers) [Example 80, 5-(2-Methyl-4-phenoxyphenyl)-N-((1S)-3-(methylamino)cyclopentyl)-4-oxo-4,5-dihydro-3H-1-thia-3,5,8-triazaacenaphthylene-2-carboxamide] | 6.42 | 
CC(=O)N[C@H]1CC[C@H](NC(=O)c2sc3nccc4c3c2NC(=O)N4c2ccc(Oc3ccccc3)cc2C)C1 (single isomer, unassigned) [Example 241, N-((1S,3S)-3-Acetamidocyclopentyl)-5-(*S)-(2-methyl-4-phenoxyphenyl)-4-oxo-4,5-dihydro-3H-1-thia-3,5,8-triazaacenaphthylene-2-carboxamide] | 7.26 | 
